According to patent publication US20100311683A1, “CYTIDINE ANALOGS FOR TREATMENT OF MYELODYSPLASTIC SYNDROMES” (priority 2007, published 2010):

How the values were obtained:
[1] = tested on: high-risk MDS patients with -7/del(7q); assay: AZA-001 subgroup analysis: patients with -7/del(7q); format: in vivo, human
MDS patients = settings: pivotal CALGB study, approved Aza dose regimen subcutaneously; cited from earlier work
[2] = tested on: patients ≥60 years with AML

For `Nc1ncn([C@@H]2O[C@H](CO)[C@@H](O)[C@H]2O)c(=O)n1` [azacitidine, 4-amino-1-β-D-ribofuranosyl-1,3,5-triazin-2(1H)-one], the “IWG 2000 response rate (CR+PR)” value ([1]; -7/del(7q) alone) was 64%, the “IWG 2000 response rate (CR+PR)” value ([1]; -7/del(7q) as part of complex karyotype) was 21% and the CR ([1]; -7/del(7q) patients) was 8/30, 27%. For the same compound, the “CR + PR” value ([1]; -7/del(7q) patients) was 13/30, 43%, the HI-E ([1]; -7/del(7q) patients) was 13/26, 50% and the HI-P ([1]; -7/del(7q) patients) was 10/20, 50%. For the same compound, the “RBC TI (transfusion independence)” value ([1]; RBC-dependent -7/del(7q) patients at BL) was 12/21, 57%, the “OS advantage at 2 years vs CCR” value ([1]; patients with -7/del(7q)) was 4 fold and the “hazard ratio for overall survival, azacitidine vs CCR” value ([1]; patients with -7/del(7q)) was 0.33. For the same compound, the “improvement in OS over CCR” value ([1]; patients with -7/del(7q)) was 3 fold, the “median Kaplan Meier difference in OS, AZA vs CCR” value ([1]; patients with -7/del(7q)) was 8.4 months and the “patients alive at 2 years” value ([1]; patients with -7/del(7q)) was 33%. For the same compound, the “reduced risk of death vs CCR” value ([1]; patients with -7/del(7q)) was 67%, the tolerability ([1]; patients with -7/del(7q)) was “generally well tolerated” and the “median Kaplan-Meier overall survival” value ([1]; patients with -7/del(7q), azacitidine n=30) was 13.1 months. For the same compound, the “baseline RBC transfusion dependent patients who achieved transfusion independence” value (MDS patients) was 45%, the fatigue ([2]; 5/8) was 63% and the “mild injection site skin reaction” value ([2]; 5/8) was 63%. For the same compound, the “mean overall survival time from diagnosis” value ([2]; all patients) was 180 days, the overall response rate ([2]; azacitidine 100 mg/m2 SC 5 days every 28 days, 6/8 patients) was 75% and the “mean number of days hospitalized during therapy” value ([2]; in vivo) was 18 days. For the same compound, the treatment related deaths ([2]; in vivo) was “No treatment related deaths were observed”, the “complete response (CR)” value ([2]; n=2 of 8) was 25% and the “partial response (PR)” value ([2]; n=4 of 8) was 50%. The “mean overall survival time” value ([2]; responders) was 200 days and the “responders who became independent of RBC transfusion” value ([2]; two of the six responders) was 33%.
